Laboratory results published in US8916498B2, “Safening 6-(trisubstituted phenyl)-4-amino-2-pyridinecarboxylate herbicide injury on direct seeded and transplanted paddy rice” (priority 2008, dated 2014).

How the values were obtained:
ORYSA (rice) = experiment: Postemergence herbicidal safening in direct seeded rice, visual injury; details: for ‘M202’ ORYSA Visual Injury (%) Obs: Safener Alone, 560 g ai/ha; for ‘M202’ ORYSA Visual Injury (%) Obs / Visual Injury (%) ‘Lemont’ ORYSA Obs: after 3 weeks
Excerpt: A=observed efficacy of active ingredient A at the same concentration as used in the mixture.
B=observed efficacy of active ingredient B at the same concentration as used in the mixture.

CYPDI = experiment: Postemergence herbicidal safening in direct seeded rice, visual injury on weed; type: in vivo; details: alone, after 3 weeks
ECHCO = experiment: as above; type: in vivo; details: alone, after 3 weeks
SEBEX = experiment: as above; type: in vivo; details: alone, after 3 weeks
[1] = alone, 8.75 g ae/ha, after 3 weeks (Table 14)
[2] = No safener, 35 g ai/ha, after 3 weeks (Table 13)
[3] = alone, 70 g ae/ha, after 3 weeks (Table 14)

C#CCOC(=O)c1nc(-c2ccc(Cl)c(OC)c2F)cc(N)c1Cl [Compound 1 Propargyl Ester]
ORYSA Visual Injury (%) ‘Cheniere’ Obs (ORYSA (rice); [1]): 55%
ORYSA Visual Injury (%) ‘Clearfield’ Obs (ORYSA (rice); [1]): 50%
ORYSA Visual Injury (%) ‘Cocodrie’ Obs (ORYSA (rice); [1]): 35%
ORYSA Visual Injury (%) ‘Lemont’ Obs (ORYSA (rice); [1]): 30%
ORYSA Visual Injury (%) ‘M202’ Obs (ORYSA (rice); [1]): 55%
ORYSA Visual Injury (%) ‘Wells’ Obs (ORYSA (rice); [1]): 10%

CCCCOC(=O)c1nc(-c2ccc(Cl)c(OC)c2F)cc(N)c1Cl [Compound 1 n-Butyl Ester]
ORYSA Visual Injury (%) ‘Cheniere’ Obs (ORYSA (rice); [2]): 25%
ORYSA Visual Injury (%) ‘Cocodrie’ Obs (ORYSA (rice); [2]): 20%
ORYSA Visual Injury (%) ‘M202’ Obs (ORYSA (rice); [2]): 28%

CCCOC(=O)c1nc(-c2ccc(Cl)c(OC)c2F)cc(N)c1Cl [Compound 1 n-Propyl Ester]
ORYSA Visual Injury (%) ‘Cheniere’ Obs (ORYSA (rice); [3]): 45%
ORYSA Visual Injury (%) ‘Clearfield’ Obs (ORYSA (rice); [3]): 60%
ORYSA Visual Injury (%) ‘Cocodrie’ Obs (ORYSA (rice); [3]): 45%
ORYSA Visual Injury (%) ‘Lemont’ Obs (ORYSA (rice); [3]): 35%
ORYSA Visual Injury (%) ‘M202’ Obs (ORYSA (rice); [3]): 55%
ORYSA Visual Injury (%) ‘Wells’ Obs (ORYSA (rice); [3]): 15%

Cc1ccc(NC(=O)NC(C)(C)c2ccccc2)cc1 [Daimuron, N-(4-methylphenyl)-N′-(1-methyl-1-phenylethyl)-urea]
Visual Injury (%) CYPDI Obs (CYPDI; 35 g ai/ha): 0%
Visual Injury (%) CYPDI Obs (CYPDI; 70 g ai/ha): 0%
Visual Injury (%) CYPDI Obs (CYPDI; 140 g ai/ha): 0%
Visual Injury (%) CYPDI Obs (CYPDI; 280 g ai/ha): 0%
‘M202’ ORYSA Visual Injury (%) Obs (ORYSA (rice)): 3.3%
Visual Injury (%) ‘Lemont’ ORYSA Obs (ORYSA (rice); alone, 35 g ai/ha): 0%
Visual Injury (%) ‘Lemont’ ORYSA Obs (ORYSA (rice); alone, 70 g ai/ha): 0%
Visual Injury (%) ‘Lemont’ ORYSA Obs (ORYSA (rice); alone, 140 g ai/ha): 0%
Visual Injury (%) ‘Lemont’ ORYSA Obs (ORYSA (rice); alone, 280 g ai/ha): 0%
Visual Injury (%) ECHCO Obs (ECHCO; 35 g ai/ha): 5%
Visual Injury (%) ECHCO Obs (ECHCO; 70 g ai/ha): 0%
Visual Injury (%) ECHCO Obs (ECHCO; 140 g ai/ha): 0%
Visual Injury (%) ECHCO Obs (ECHCO; 280 g ai/ha): 10%
Visual Injury (%) SEBEX Obs (SEBEX; 35 g ai/ha): 0%
Visual Injury (%) SEBEX Obs (SEBEX; 70 g ai/ha): 0%
Visual Injury (%) SEBEX Obs (SEBEX; 140 g ai/ha): 0%
Visual Injury (%) SEBEX Obs (SEBEX; 280 g ai/ha): 0%

C=CCN(CC=C)C(=O)C(Cl)Cl [Dichlormid]
ORYSA Visual Injury (%) ‘Cheniere’ Obs (ORYSA (rice); safener 140 g ai/ha alone): 0%
ORYSA Visual Injury (%) ‘Cocodrie’ Obs (ORYSA (rice); safener 140 g ai/ha alone): 0%
ORYSA Visual Injury (%) ‘Lemont’ Obs (ORYSA (rice); safener 140 g ai/ha alone): 0%

CC(C)(SC(=O)N1CCCCC1)c1ccccc1 [Dimepiperate]
ORYSA Visual Injury (%) ‘M202’ Obs (ORYSA (rice); safener 280 g ai/ha alone): 10%

CCOC(=O)c1nc(C(Cl)(Cl)Cl)n(-c2ccc(Cl)cc2Cl)n1 [Fenchlorazole-ethyl]
‘M202’ ORYSA Visual Injury (%) Obs (ORYSA (rice)): 0.0%

FC(F)(F)C(=NOCC1OCCO1)c1ccc(Cl)cc1 [Fluxofenim, 1-(4-chlorophenyl)-2,2,2-trifluoroethanone O-(1,3-dioxolan-2-ylmethyl)oxime]
‘M202’ ORYSA Visual Injury (%) Obs (ORYSA (rice)): 3.3%

CC1(C)OC(c2ccco2)CN1C(=O)C(Cl)Cl (centres unmarked) [Furilazole, 3-(dichloroacetyl)-5-(2-furanyl)-2,2-dimethyl-oxazolidine]
‘M202’ ORYSA Visual Injury (%) Obs (ORYSA (rice)): 3.3%
ORYSA Visual Injury (%) ‘Lemont’ Obs (ORYSA (rice); safener 70 g ai/ha alone): 0%

N#C/C(=N\OCC1OCCO1)c1ccccc1 [Oxabetrinil, (αZ)-α-[(1,3-dioxolan-2-yl)methoxyimino]-benzeneacetonitrile]
Visual Injury (%) CYPDI Obs (CYPDI; 35 g ai/ha): 0%
Visual Injury (%) CYPDI Obs (CYPDI; 70 g ai/ha): 0%
Visual Injury (%) CYPDI Obs (CYPDI; 140 g ai/ha): 0%
Visual Injury (%) CYPDI Obs (CYPDI; 280 g ai/ha): 0%
Visual Injury (%) ‘Lemont’ ORYSA Obs (ORYSA (rice); alone, 35 g ai/ha): 0%
Visual Injury (%) ‘Lemont’ ORYSA Obs (ORYSA (rice); alone, 70 g ai/ha): 15%
Visual Injury (%) ‘Lemont’ ORYSA Obs (ORYSA (rice); alone, 140 g ai/ha): 0%
Visual Injury (%) ‘Lemont’ ORYSA Obs (ORYSA (rice); alone, 280 g ai/ha): 10%
Visual Injury (%) ECHCO Obs (ECHCO; 35 g ai/ha): 0%
Visual Injury (%) ECHCO Obs (ECHCO; 70 g ai/ha): 0%
Visual Injury (%) ECHCO Obs (ECHCO; 140 g ai/ha): 0%
Visual Injury (%) ECHCO Obs (ECHCO; 280 g ai/ha): 0%
Visual Injury (%) SEBEX Obs (SEBEX; 35 g ai/ha): 0%
Visual Injury (%) SEBEX Obs (SEBEX; 70 g ai/ha): 0%
Visual Injury (%) SEBEX Obs (SEBEX; 140 g ai/ha): 0%
Visual Injury (%) SEBEX Obs (SEBEX; 280 g ai/ha): 0%
